In ChEMBL document CHEMBL1127127, “Avermectin B1-8,9-oxide: reactivity, bioactivity, and stereochemistry” (1993) one finds IC100 data, which are given here for five molecules.

The subject of the experiment is Artemia. Put plainly: Tested for bioactivity against Brine Shrimp. In kind it is functional.
`CC[C@H](C)[C@H]1O[C@]2(CC[C@@H]1C)C[C@@H]1C[C@@H](C/C=C(\C)[C@@H](O[C@@H]3C[C@@H](OC)[C@H](O[C@@H]4C[C@@H](OC)[C@H](O)[C@@H](C)O4)[C@@H](C)O3)[C@@H](C)/C=C/C=C3\COC4[C@H](O)C(C)=C[C@@H](C(=O)O1)[C@]34O)O2` (stereo not given in full) displayed an IC100 of 430 ng/mL.
Next, `CC[C@H](C)[C@H]1O[C@]2(C=C[C@@H]1C)C[C@@H]1C[C@@H](C/C=C(\C)[C@@H](O[C@@H]3C[C@@H](OC)[C@H](O[C@@H]4C[C@@H](OC)[C@H](O)[C@@H](C)O4)[C@@H](C)O3)[C@@H](C)/C=C/[C@@H]3O[C@]34COC3[C@H](O)C(C)=C[C@@H](C(=O)O1)[C@@]34O)O2` (stereo not given in full): 650 ng/mL.
In turn, `CC[C@H](C)[C@H]1O[C@]2(C=C[C@@H]1C)C[C@@H]1C[C@@H](C/C=C(\C)[C@@H](O[C@@H]3C[C@@H](OC)[C@H](O[C@@H]4C[C@@H](OC)[C@H](O)[C@@H](C)O4)[C@@H](C)O3)[C@@H](C)/C=C/C=C3\COC4[C@H](O)C(C)=C[C@@H](C(=O)O1)[C@]34O)O2` (stereo not given in full) showed an IC100 of 335 ng/mL.
With `CC[C@H](C)[C@H]1O[C@]2(C=C[C@@H]1C)C[C@@H]1C[C@@H](C/C=C(\C)[C@@H](O[C@@H]3C[C@@H](OC)[C@H](O[C@@H]4C[C@@H](OC)[C@H](O)[C@@H](C)O4)[C@@H](C)O3)[C@@H](C)/C=C/C(Sc3ccccc3)[C@]3(O)COC4[C@H](O)C(C)=C[C@@H](C(=O)O1)[C@@]43O)O2` (stereo not given in full) the figure was greater than 55000 ng/mL; with `CC[C@H](C)[C@H]1O[C@]2(C=C[C@@H]1C)C[C@@H]1C[C@@H](C/C=C(\C)[C@@H](O[C@@H]3C[C@@H](OC)[C@H](O[C@@H]4C[C@@H](OC)[C@H](O)[C@@H](C)O4)[C@@H](C)O3)[C@@H](C)/C=C/C(O)[C@]3(O)COC4[C@H](O)C(C)=C[C@@H](C(=O)O1)[C@@]43O)O2` (stereo not given in full), greater than 55000 ng/mL.
